From paper PMC5988308, “Rhodanine derivatives as potent anti-HIV and anti-HSV microbicides” (PLoS ONE, 2018) come the findings set out here.

In data set [1] the test system is HIV-1 AD8. Briefly: Inhibition of antiviral activity by fetal bovine serum (TZM-bl, AD8). The following applies: FBS 0% to 10%. The class given is cell-based. The protocol:
To evaluate the binding of compounds to plasma proteins also in a cell based assay, the infection with the HIV laboratory strain AD8 was performed in absence or in presence of different concentrations of Fetal Bovine Serum (FBS): 2%, 5% and 10%. The representative compound 2 was pre-incubated at different concentrations ranging from 10 μM to 3.2 nM with 300 TCID50 /mL of AD8 in DMEM supplemented with 50 μg/mL penicillin, 50 μg/mL streptomycin, 30 μg/mL DEAE-dextran and FBS at the concentration described above. Maraviroc was used as control. After an hour the mixture was added to 40.000 TZM-bl cells/well plated in a 96-well plate and after two days the infection was quantified using a CPRG assay (Roche) as previously described.

Another data set concerns HSV-1. Description: HSV-1 plaque reduction assay on Vero cells. The format is cell-based. The note with it: read-out: HSV-1 EC50, Vero cells. The protocol:
(§1) Clinical isolates of HSV-1 and HSV-2 were kindly provided by Prof. M. Pistello, University of Pisa, Italy. HSV-1 and HSV-2 strains were propagated and titrated by plaque assay on Vero cells. A HSV-2 strain with phenotypic resistance to acyclovir was generated by serial passage in the presence of increasing concentrations of acyclovir, as previously described.
(§2) The effect of the rhodanine derivatives on HSV infection was evaluated by plaque reduction assay. Vero cells were pre-plated 24 h in advance in 24-well plates at a density of […]. Increasing concentrations of compounds were mixed with HSV-2 (MOI 0.001 pfu/cell) or HSV-2 acyclovir resistant (MOI 0.001) or HSV-1 (MOI 0.0005) or and incubated for 1 hour at 37°C. The mixtures were subsequently added to the cells, which were then incubated at 37°C for 2 h. The virus inoculum was then removed and the cells washed and overlaid with a medium containing 1.2% methylcellulose (Sigma). After further incubation at 37°C for 24 h (HSV-2 and HSV-2 R Acy) or 48 h (HSV-1), cells were fixed and stained with 0.1% crystal violet in 20% ethanol and viral plaques counted. The effective concentration producing 50% reduction (EC50) and 90% reduction (EC90) in plaque formation was determined using Prism software by comparing drug-treated with wells treated with medium and solvent. The selectivity index (SI) was calculated by dividing the CC50 by the EC50 value.
All results are presented as the mean values from three independent experiments. The EC50 values for inhibition curves were calculated by regression analysis using the software GraphPad Prism (GraphPad Software, San Diego, California, U.S.A.) by fitting a variable slope-sigmoidal dose–response curve. Acyclovir was purchased from Sigma Aldrich (Milan, Italy).
For orientation: Plaque reduction counts the foci of infection that form in a cell layer.

Data set [2] concerns recombinant HIV-1 integrase Q148H, G140S. Briefly: Antiviral activity on human CD4+ T lymphocytes, integrase mutant Q148H, G140S. The format is cell-based. The following applies: Human immunodeficiency virus 1, read-out: Q148H, G140S EC50.
The subject of another data set is HIV-1 AD8 WT. Briefly: Antiviral activity on human CD4+ T lymphocytes, AD8 WT. The format is cell-based. The following applies: Human immunodeficiency virus 1; human CD4+ T lymphocytes; read-out: AD8 WT EC50. The protocol:
(§3) The antiviral activity and cytotoxicity of compounds 2, 9e and 9f was tested also on freshly purified human CD4^+ T lymphocytes obtained from healthy blood donors (informed consent available) as described previously on HIV laboratory strain NL4.3 and AD8 [33, 34].

The next data set relates to NL4.3 HIV strain. Description: Antiviral activity in microbicide gel formulation, transwell experiment, TZM-bl cells. The class given is cell-based, HIV-1. The following applies: Human immunodeficiency virus 1, gel at 50%. The protocol: All the semi-solid formulations were prepared adding at the pre-gel solution reported above hydroxyethyl cellulose (HEC) (1.8% w/v). In all samples, 0.2% v/v propionic acid was added to aqueous solution in order to preserve form bacteria and mold contamination. HEC was dispersed in the pre-gel solution at 25°C under magnetic stirring, overnight.
Antiviral activity of compound 2 on NL4.3 HIV strain was evaluated also in a gel formulation. To reproduce more physiological conditions, TZM-bl cells were seeded into transwells and the gel was applied onto the cell monolayer at 50% fixed concentration with serial drug dilutions as previously described. Briefly, 4x10^4 TZM-bl cells were plated into each transwell apical chamber of a 24-well plate (pore size 3μm and diameter 6,5 mm, Corning) containing medium in the bottom plate and cultured overnight. For efficacy testing, 60 TCID50 of virus was added to each apical well in the presence of 100 μL of compound 2 gel, tenofovir gel or blank gel at the final drug concentrations of 25μM, 10 μM and 5 μM. Inhibition of infection was determined as previously based on deviations from blank gel.

The subject of data set [3] is recombinant HIV-1 integrase Y143R. Description: Antiviral activity on human CD4+ T lymphocytes, integrase mutant Y143R. The format is cell-based. The following applies: Human immunodeficiency virus 1, read-out: Y143R EC50.
The test system of data set [4] is HSV-2 acyclovir resistant. Description: HSV-2 acyclovir resistant plaque reduction assay on Vero cells. The format is cell-based. The note with it: Human alphaherpesvirus 2, Vero, read-out: HSV-2 acyclovir resistant EC50. The protocol:
as §1
as §2, with “The virus inoculum was then removed and the cells washed and overlaid with a medium containing 1.2% methylcellulose (Sigma).” left out, “The effective concentration producing 50% reduction (EC50) and 90% reduction (EC90) in plaque formation was determined using Prism software by comparing drug-treated with wells treated with medium and solvent.” left out
All results are presented as the mean values from three independent experiments. The EC50 values for inhibition curves were calculated by regression analysis using the software GraphPad Prism (GraphPad Software, San Diego, California, U.S.A.) by fitting a variable slope-sigmoidal dose–response curve. […]

In data set [5] the test system is HIV-1 AD8. Briefly: Inhibition of antiviral activity by purified bovine serum albumin (TZM-bl, AD8). The format is cell-based. The protocol: To confirm the binding of compound 2 to serum albumin, infection was performed in presence of different concentrations of purified bovine serum albumin (BSA, Sigma Aldrich) starting from the concentration that is usually present in FBS serum (35 mg/mL, 1X) and increasing to a five-fold concentration (175 mg/mL) up to a ten-fold concentration (350 mg/mL). […] After one hour, the mixture was added to 40.000 TZM-bl cells/well plated in DMEM supplemented with 50 μg/mL penicillin, 50 μg/mL streptomycin, 30 μg/mL DEAE-dextran and 10% FBS in a 96-well plate. After two days the infection was evaluated through a CPRG assay.

Data set [6] is described as follows: Cytotoxicity on human CD4+ T lymphocytes. The format is cell-based. The protocol:
as §3

A further data set relates to human CD4+ T lymphocytes. Description: Cytotoxicity on human CD4+ T lymphocytes. The class given is cell-based. The protocol:
as §3

Another data set deals with HIV-1 NL 4.3 WT. Description: Antiviral activity on human CD4+ T lymphocytes, NL4.3 WT. The following applies: Human immunodeficiency virus 1; human CD4+ T lymphocytes; read-out: NL 4.3 WT EC50. The format is cell-based. The protocol:
as §3

Where two headings read alike, the source gives them in different places.

For `O=C(O)c1ccc(-c2ccc(/C=C3\SC(=S)N(Cc4ccc(Cl)cc4)C3=O)o2)cc1O` [Compound 2], the “effect of FBS concentration on antiviral activity” value in the data set on HIV-1 AD8 [1] was “progressive loss of activity”. The concentration giving a half-maximal response (EC50) – broadly, the concentration at which the effect is half-maximal – in the data set with HSV-1 (Human alphaherpesvirus 1, Vero) was determined as 132 nM; with HSV-1 it was 131 ± 59.9 nM; in data set [2], 9 ± 2 nM; in the data set on HIV-1 AD8 WT, 11 ± 1 nM; in the data set with NL4.3 HIV strain it was 13000 nM; in [3] it was 8 ± 3 nM. Also, the values for the concentration giving a half-maximal response (EC50) (in [4]; in the data set on HIV-1 NL 4.3 WT) were 10.7 ± 6.34 nM and 13 ± 3 nM, respectively. Also, the “reduction of antiviral activity with physiological BSA, compound at 400 nM” value with HIV-1 AD8 [5] (1X = 35 mg/mL BSA, 400 nM) is on record as “about 50%”. In addition, the “loss of antiviral activity with physiological BSA, compound at 2 μM” value with HIV-1 AD8 [5] (1X = 35 mg/mL BSA, 2 μM) was found to be 20%. Further, the “antiviral activity with BSA concentration increased 5 to 10 folds” value in the data set with HIV-1 AD8 [5] (175-350 mg/mL BSA, 400 nM) is reported as “complete loss of activity”. In addition, it took 810 ± 20 nM to reach half-maximal cytotoxicity in data set [6] (CC50). Further, the “SI (Selectivity Index)” value in the data set with human CD4+ T lymphocytes worked out at 62.
